ChEMBL document CHEMBL5465560, “Selectivity Literature for EUbOPEN Chemogenomic Library” (2024)

Key:
[1] = tested on: Mast/stem cell growth factor receptor Kit (Homo sapiens), P10721 [V559D]; settings: at 10 µM
[2] = molecular target: T1, Serine/threonine-protein kinase ULK1 (Homo sapiens) (UniProt O75385); assay: Selectivity interaction (KinomeScan (DiscoverX)) EUB0000092b ULK1; settings: at 10 µM
T1 sequence (whole entry): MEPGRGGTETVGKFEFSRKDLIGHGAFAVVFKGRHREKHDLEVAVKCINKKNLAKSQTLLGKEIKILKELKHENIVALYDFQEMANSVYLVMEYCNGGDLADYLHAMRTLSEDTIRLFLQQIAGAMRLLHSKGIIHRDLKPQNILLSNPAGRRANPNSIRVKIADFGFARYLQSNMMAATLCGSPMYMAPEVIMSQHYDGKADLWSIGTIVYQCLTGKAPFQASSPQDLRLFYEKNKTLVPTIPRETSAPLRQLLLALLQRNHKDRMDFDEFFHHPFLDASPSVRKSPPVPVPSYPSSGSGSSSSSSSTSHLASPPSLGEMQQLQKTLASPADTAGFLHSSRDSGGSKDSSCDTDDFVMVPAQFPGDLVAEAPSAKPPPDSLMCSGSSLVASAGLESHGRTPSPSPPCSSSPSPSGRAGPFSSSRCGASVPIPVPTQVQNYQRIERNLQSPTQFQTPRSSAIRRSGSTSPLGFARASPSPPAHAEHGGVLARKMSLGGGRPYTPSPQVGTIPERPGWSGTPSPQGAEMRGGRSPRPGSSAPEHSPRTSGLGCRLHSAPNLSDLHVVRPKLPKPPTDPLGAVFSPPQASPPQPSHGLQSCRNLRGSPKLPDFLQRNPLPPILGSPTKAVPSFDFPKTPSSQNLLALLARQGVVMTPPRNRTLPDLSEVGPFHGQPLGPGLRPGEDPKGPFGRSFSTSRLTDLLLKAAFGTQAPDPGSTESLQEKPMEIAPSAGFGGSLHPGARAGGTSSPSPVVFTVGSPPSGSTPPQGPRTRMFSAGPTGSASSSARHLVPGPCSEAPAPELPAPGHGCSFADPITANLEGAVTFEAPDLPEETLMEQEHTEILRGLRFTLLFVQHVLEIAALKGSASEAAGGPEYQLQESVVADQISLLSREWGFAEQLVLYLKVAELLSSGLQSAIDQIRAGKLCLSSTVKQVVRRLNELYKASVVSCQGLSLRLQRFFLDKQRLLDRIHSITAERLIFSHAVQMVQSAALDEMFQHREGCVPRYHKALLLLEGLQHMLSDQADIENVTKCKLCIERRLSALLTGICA

[3] = molecular target: LIM domain kinase 2 (Homo sapiens) (UniProt P53671); assay: Selectivity interaction (KinomeScan (DiscoverX)) EUB0000092b LIMK2; settings: at 10 µM
[4] = molecular target: T2, Dual serine/threonine and tyrosine protein kinase (Homo sapiens) (UniProt Q6XUX3); assay: Selectivity interaction (KinomeScan (DiscoverX)) EUB0001550a DSTYK; settings: at 1 µM
T2 sequence (whole entry): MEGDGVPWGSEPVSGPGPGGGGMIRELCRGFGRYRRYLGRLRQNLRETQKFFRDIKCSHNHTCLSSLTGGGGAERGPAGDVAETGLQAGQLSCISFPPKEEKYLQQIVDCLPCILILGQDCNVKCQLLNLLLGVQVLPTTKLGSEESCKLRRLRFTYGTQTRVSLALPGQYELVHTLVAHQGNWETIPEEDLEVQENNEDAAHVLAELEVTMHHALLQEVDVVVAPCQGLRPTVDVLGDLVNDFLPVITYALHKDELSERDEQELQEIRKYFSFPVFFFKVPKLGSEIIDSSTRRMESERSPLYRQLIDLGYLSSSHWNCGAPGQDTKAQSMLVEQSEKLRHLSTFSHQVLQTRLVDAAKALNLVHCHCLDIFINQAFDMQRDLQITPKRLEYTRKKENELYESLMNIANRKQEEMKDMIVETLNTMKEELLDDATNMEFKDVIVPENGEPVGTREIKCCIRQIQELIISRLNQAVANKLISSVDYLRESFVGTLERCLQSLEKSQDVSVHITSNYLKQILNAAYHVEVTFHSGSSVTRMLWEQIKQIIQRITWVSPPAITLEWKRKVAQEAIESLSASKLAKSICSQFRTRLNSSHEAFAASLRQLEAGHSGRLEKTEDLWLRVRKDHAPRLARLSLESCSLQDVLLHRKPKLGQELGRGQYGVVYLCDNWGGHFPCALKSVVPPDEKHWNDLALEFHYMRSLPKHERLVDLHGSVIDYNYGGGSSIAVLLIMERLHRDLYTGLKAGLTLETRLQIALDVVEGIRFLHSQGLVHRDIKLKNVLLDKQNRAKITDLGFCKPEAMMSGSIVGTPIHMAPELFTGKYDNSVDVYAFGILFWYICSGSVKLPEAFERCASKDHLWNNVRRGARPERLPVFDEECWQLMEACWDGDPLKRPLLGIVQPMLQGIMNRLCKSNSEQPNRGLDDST

[5] = molecular target: Protein polybromo-1 (Homo sapiens) (UniProt Q86U86); assay: Selectivity interaction (Bromodomain panel (DSF asssay)) EUB0000270b PBRM1
[6] = molecular target: Histone-lysine N-methyltransferase SUV39H2 (Homo sapiens) (UniProt Q9H5I1); assay: Selectivity interaction (Transferase panel (protein, RNA, and DNA methyltransferases. and EP300 (acetyltransferase))) EUB0000270b SUV39H2
[7] = molecular target: RAF proto-oncogene serine/threonine-protein kinase (Homo sapiens) (UniProt P04049); assay: Selectivity interaction (Kinase panel (Invitrogen)) EUB0000639a RAF1; settings: at 200 nM
[8] = molecular target: Receptor tyrosine-protein kinase erbB-2 (Homo sapiens, UniProt P04626); assay: Selectivity interaction (KinomeScan (DiscoverX)) EUB0000607a ERBB2; settings: at 10 µM
[9] = molecular target: 5'-AMP-activated protein kinase catalytic subunit alpha-2 (Homo sapiens) (UniProt P54646); assay: Selectivity interaction (KinomeScan (DiscoverX)) EUB0001049a PRKAA2; settings: at 1 µM
[10] = molecular target: Transient receptor potential cation channel subfamily M member 6 (Homo sapiens) (UniProt Q9BX84); assay: Selectivity interaction (KinomeScan (DiscoverX)) EUB0000045b TRPM6
[11] = molecular target: Cyclin-dependent kinase 14 (Homo sapiens) (UniProt O94921); assay: Selectivity interaction (KinomeScan (DiscoverX)) EUB0000618a CDK14; settings: at 10 µM
[12] = molecular target: NT-3 growth factor receptor (Homo sapiens, UniProt Q16288); assay: Selectivity interaction (KinomeScan (DiscoverX)) EUB0000618a NTRK3; settings: at 10 µM
[13] = tested on: Epidermal growth factor receptor (Homo sapiens), P00533 [UNDEFINED MUTATION]; assay: Selectivity interaction (Ambit KINOMEscan and KiNATiv profiling in Jurkat cells) EUB0000090b EGFR; format: cell-based; settings: at 1 µM

Transient receptor potential cation channel subfamily M member 6 (Homo sapiens), sequence (Q9BX84 whole entry): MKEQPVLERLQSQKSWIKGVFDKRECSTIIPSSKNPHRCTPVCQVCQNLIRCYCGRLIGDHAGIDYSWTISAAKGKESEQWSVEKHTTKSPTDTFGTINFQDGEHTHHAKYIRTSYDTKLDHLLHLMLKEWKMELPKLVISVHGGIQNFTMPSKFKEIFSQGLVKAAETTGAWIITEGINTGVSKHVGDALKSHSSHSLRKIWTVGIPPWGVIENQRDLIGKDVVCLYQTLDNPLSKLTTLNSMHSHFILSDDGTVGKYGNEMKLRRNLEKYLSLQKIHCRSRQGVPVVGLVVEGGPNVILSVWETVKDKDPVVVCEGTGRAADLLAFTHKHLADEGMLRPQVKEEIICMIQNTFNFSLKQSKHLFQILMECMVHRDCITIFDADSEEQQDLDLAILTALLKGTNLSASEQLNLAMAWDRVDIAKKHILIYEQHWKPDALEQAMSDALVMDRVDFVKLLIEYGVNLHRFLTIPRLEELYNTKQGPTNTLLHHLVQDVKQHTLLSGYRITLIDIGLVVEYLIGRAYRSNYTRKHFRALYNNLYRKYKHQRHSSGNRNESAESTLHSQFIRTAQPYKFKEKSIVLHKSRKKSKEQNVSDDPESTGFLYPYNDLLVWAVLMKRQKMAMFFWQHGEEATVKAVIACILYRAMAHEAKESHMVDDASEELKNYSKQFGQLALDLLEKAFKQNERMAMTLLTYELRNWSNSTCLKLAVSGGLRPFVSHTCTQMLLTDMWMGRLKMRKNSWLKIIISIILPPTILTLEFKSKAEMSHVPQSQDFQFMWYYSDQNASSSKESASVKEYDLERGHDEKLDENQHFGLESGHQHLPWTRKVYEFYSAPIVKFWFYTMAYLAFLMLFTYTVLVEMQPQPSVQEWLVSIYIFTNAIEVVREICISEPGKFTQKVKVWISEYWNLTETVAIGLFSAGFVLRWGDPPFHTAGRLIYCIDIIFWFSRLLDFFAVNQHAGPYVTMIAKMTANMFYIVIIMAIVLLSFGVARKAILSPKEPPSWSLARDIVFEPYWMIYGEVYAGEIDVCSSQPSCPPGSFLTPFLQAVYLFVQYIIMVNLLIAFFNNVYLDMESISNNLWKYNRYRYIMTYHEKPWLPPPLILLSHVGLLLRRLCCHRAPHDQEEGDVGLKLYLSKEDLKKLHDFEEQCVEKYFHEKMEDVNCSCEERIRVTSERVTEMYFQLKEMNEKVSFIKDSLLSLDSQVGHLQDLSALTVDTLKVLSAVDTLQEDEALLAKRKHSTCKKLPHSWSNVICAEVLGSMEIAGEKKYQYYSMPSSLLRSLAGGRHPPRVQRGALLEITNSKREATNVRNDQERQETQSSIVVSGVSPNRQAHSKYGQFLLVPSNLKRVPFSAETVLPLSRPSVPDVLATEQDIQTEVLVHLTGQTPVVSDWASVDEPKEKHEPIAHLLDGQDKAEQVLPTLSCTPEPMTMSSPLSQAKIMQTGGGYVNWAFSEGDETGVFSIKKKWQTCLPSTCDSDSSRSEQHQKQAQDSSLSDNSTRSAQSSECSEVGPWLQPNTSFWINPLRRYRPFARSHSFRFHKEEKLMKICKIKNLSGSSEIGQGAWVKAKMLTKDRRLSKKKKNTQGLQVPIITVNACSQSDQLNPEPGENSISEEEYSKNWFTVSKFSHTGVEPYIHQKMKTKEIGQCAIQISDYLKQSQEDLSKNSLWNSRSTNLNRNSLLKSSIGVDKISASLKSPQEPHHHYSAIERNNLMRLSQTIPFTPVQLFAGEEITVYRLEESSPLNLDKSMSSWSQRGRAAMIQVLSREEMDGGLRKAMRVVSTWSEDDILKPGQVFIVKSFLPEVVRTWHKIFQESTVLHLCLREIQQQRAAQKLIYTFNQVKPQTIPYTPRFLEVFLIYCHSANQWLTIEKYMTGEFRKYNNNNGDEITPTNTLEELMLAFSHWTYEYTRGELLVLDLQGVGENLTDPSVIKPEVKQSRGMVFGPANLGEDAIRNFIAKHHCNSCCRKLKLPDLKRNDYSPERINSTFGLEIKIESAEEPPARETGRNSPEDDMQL
Histone-lysine N-methyltransferase SUV39H2 (Homo sapiens), sequence (Q9H5I1 whole entry): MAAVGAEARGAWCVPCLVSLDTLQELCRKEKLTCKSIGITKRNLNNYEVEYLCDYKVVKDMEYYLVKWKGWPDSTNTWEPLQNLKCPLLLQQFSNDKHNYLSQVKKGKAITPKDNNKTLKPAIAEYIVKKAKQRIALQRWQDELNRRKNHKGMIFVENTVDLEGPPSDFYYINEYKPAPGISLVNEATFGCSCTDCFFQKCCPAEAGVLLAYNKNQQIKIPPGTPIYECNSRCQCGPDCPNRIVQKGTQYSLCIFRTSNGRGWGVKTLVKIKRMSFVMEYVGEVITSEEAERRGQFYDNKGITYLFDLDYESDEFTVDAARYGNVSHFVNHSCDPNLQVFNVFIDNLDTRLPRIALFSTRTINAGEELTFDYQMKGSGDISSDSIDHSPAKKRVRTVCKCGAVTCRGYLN
LIM domain kinase 2 (Homo sapiens), sequence (P53671 whole entry, looked up, the tested form may be a part): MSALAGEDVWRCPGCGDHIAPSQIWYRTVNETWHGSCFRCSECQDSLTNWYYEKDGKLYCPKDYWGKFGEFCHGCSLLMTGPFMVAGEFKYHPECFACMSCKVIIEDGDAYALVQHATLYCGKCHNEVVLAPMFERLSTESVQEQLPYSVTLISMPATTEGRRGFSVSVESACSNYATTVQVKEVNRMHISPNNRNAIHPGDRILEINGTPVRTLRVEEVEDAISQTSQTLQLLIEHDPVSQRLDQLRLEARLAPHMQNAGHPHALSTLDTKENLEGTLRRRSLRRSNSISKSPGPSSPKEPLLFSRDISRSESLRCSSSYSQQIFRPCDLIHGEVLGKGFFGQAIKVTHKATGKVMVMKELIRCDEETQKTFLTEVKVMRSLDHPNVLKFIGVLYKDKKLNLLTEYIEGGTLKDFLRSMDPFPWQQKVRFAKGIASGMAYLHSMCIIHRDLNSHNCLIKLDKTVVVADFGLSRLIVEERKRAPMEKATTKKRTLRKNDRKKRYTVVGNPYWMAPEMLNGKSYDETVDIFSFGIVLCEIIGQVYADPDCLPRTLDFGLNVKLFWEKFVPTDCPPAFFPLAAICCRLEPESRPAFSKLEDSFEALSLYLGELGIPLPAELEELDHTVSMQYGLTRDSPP
RAF proto-oncogene serine/threonine-protein kinase (Homo sapiens), sequence (P04049 whole entry): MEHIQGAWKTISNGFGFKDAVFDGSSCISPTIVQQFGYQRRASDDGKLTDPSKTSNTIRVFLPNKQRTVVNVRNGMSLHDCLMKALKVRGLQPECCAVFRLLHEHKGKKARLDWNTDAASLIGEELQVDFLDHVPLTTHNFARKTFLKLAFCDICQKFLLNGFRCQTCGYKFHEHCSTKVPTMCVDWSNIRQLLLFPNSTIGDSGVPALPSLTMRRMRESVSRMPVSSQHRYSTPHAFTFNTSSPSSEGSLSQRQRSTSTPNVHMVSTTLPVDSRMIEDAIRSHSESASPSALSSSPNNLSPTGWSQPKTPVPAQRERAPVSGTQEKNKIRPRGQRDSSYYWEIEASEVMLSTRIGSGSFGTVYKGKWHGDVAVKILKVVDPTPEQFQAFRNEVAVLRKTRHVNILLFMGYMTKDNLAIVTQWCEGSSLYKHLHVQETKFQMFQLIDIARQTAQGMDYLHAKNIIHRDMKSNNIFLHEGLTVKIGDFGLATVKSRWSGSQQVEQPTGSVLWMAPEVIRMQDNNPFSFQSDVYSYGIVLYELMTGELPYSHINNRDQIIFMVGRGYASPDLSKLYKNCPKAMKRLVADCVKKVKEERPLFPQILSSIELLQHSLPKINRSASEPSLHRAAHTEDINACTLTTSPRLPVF
Receptor tyrosine-protein kinase erbB-2, sequence (P04626 whole entry): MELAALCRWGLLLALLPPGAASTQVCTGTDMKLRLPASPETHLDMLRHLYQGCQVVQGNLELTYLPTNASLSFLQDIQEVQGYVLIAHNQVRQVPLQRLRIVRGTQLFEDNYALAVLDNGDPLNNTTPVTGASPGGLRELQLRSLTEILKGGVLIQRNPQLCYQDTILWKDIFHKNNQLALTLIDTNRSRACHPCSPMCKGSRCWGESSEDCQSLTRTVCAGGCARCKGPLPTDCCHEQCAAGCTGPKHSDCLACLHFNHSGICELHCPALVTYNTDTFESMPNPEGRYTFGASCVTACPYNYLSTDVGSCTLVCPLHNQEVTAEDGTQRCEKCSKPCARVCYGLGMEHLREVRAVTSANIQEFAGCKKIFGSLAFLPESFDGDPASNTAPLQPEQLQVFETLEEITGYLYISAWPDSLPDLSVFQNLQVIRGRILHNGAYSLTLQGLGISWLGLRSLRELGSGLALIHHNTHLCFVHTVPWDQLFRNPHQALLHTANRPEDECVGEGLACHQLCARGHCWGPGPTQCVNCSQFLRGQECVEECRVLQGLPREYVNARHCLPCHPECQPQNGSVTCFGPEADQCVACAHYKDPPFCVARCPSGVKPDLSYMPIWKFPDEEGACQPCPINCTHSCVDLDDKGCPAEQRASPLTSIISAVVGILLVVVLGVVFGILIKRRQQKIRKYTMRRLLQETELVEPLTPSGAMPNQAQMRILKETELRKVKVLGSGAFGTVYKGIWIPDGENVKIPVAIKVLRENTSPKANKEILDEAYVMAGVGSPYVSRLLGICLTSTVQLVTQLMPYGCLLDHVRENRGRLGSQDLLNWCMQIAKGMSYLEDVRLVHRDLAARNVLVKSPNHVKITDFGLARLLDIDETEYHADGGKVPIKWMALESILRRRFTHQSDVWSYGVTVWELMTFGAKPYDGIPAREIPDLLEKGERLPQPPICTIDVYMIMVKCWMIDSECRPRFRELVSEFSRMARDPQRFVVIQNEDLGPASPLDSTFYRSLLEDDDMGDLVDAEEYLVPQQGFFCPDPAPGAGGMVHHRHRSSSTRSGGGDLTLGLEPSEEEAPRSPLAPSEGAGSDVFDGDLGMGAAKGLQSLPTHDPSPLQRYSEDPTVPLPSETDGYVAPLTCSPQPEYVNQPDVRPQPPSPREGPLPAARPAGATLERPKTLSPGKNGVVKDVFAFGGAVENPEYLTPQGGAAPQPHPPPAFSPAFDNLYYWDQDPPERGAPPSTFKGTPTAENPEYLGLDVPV

CCN(CC)CCCCNc1ncc2cc(-c3cc(OC)cc(OC)c3)c(NC(=O)NC(C)(C)C)nc2n1
% of control [1]: 100%

CCC(=O)N1CCN(c2ccc(-n3c(=O)ccc4cnc5ccc(-c6cnc7ccccc7c6)cc5c43)cc2C(F)(F)F)CC1
% of control [2]: 100%
% of control [3]: 4.8%

CN(C)CC#Cc1ccc2[nH]c3c(c2c1)-c1nc(N)ncc1CCC3
% of control [4]: 5.2%

Cc1cc(CN)cc(C)c1-c1ncn(C)c1-c1cncn1C
dTM [5]: -0.44 K
% activity ([6]; at 1 µM): > 90%
% activity ([6]; at 10 µM): > 80%

CC[C@@H]1[C@H](F)C(=O)N[C@@H]1COc1nccc2cc(C(N)=O)c(OC)cc12 [ZIMLOVISERTIB]
% of inhibition [7]: 10.1%

CNC(=O)Nc1ccc(-c2nc(N3CC4CCC(C3)O4)c3cnn(C4CCC5(CC4)OCCO5)c3n2)cc1
% of control [8]: 88%

COc1cc(Nc2nc(C)cc(-c3cnn4nc(OC)ccc34)n2)cc(C(F)(F)F)c1
% of control [9]: 100%

C=CC(=O)Nc1cc(-n2c(=O)ccc3cnc4ccc(-c5ccc(NS(C)(=O)=O)cc5)cc4c32)ccc1C
% of control ([10]; at 1 µM): 100%
% of control ([10]; at 10 µM): 100%

O[C@H]1CC[C@H](Nc2ncc3nc(Nc4c(F)cc(F)cc4F)n([C@H]4CCOC4)c3n2)CC1
% of control [11]: 100%
% of control [12]: 100%

CN(C)C/C=C/C(=O)Nc1ccc(C(=O)N2CCCC(Nc3ncc(Cl)c(-c4c[nH]c5ccccc45)n3)C2)cc1 (stereo not given)
% of control [13]: 77%
